In brackets after ≈: the same amount, converted by molar mass. Activity calls are given as the source filed them. The rule behind the calls is not given here.
How the values were obtained:
Staphylococcus aureus [1] = experiment: Antibacterial activity against Staphylococcus aureus assessed as growth inhibition incubated for 24 hrs using mixed anhydride; format: functional
Salmonella [2] = experiment: Antibacterial activity against Salmonella schottmuelleri assessed as growth inhibition incubated for 24 hrs using mixed anhydride; format: functional
Proteus mirabilis = experiment: Antimicrobial activity against Proteus mirabilis infected in mouse assessed as growth inhibition at 250 mg/kg; format: functional, organism-based; parameters: dose 250 mg/kg
Pseudomonas aeruginosa = experiment: Antimicrobial activity against Pseudomonas aeruginosa infected in mouse assessed as growth inhibition at 250 mg/kg; format: functional, organism-based; parameters: dose 250 mg/kg
Staphylococcus aureus [3] = experiment: Antibacterial activity against Staphylococcus aureus assessed as zone of inhibition at 100 ug/ml incubated for 24 hrs; format: functional, organism-based
Staphylococcus aureus [4] = experiment: Antibacterial activity against Staphylococcus aureus assessed as growth inhibition incubated for 24 hrs using acid chloride; format: functional
Salmonella [5] = experiment: Antibacterial activity against Salmonella schottmuelleri assessed as growth inhibition incubated for 24 hrs using acid chloride; format: functional

| Compound | MIC (Staphylococcus aureus [1]) | MIC (Salmonella [2]) | MIC (Staphylococcus aureus [4]) | MIC (Salmonella [5]) | Activity (Proteus mirabilis) | Activity (Pseudomonas aeruginosa) | inhibition zone (IZ) (Staphylococcus aureus [3]) |
| --- | --- | --- | --- | --- | --- | --- | --- |
| CC1(C)S[C@@H]2[C@H](NC(=O)Cc3ccccc3)C(=O)N2[C@H]1C(=O)O [PENICILLIN G] | 10 µg/mL (≈ 29.9 µM) | 10 µg/mL (≈ 29.9 µM) | 10 µg/mL (≈ 29.9 µM) | 10 µg/mL (≈ 29.9 µM) | – | – | – |
| CCOC(=O)c1c(CCC(=O)N[C@@H]2C(=O)N3[C@@H]2SC(C)(C)[C@@H]3C(=O)[O-])[n+]([O-])c2ccccc2[n+]1[O-].[Na+] | 10 µg/mL | 1000 µg/mL | – | – | inactive | inactive | – |
| Cc1c(CC(=O)N[C@@H]2C(=O)N3[C@@H]2SC(C)(C)[C@@H]3C(=O)[O-])[n+]([O-])c2ccccc2[n+]1[O-].[Na+] | 100 µg/mL | 1000 µg/mL | – | – | inactive | inactive | – |
| CCOC(=O)c1c(C(=O)N[C@@H]2C(=O)N3[C@@H]2SC(C)(C)[C@@H]3C(=O)[O-])nc2ccccc2[n+]1[O-].[Na+] | – | – | 100 µg/mL | 1000 µg/mL | inactive | inactive | Active |

More lines, main results first:

| MIC (Staphylococcus aureus [1]) | MIC (Salmonella [2]) | MIC (Staphylococcus aureus [4]) | MIC (Salmonella [5]) | Compound | Activity (Proteus mirabilis) | Activity (Pseudomonas aeruginosa) | inhibition zone (IZ) (Staphylococcus aureus [3]) |
| --- | --- | --- | --- | --- | --- | --- | --- |
| 1000 µg/mL | > 1000 µg/mL | – | – | Cc1c(CC(=O)N[C@@H]2C(=O)N3C(C(=O)O)=C(C[O-])CS[C@H]23)[n+]([O-])c2ccccc2[n+]1[O-].[Na+] | inactive | inactive | Active |
| – | – | 100 µg/mL | 1000 µg/mL | CC1(C)S[C@@H]2[C@H](NC(=O)c3c(-c4ccccc4)[n+]([O-])c4ccccc4[n+]3[O-])C(=O)N2[C@H]1C(=O)[O-].[Na+] | inactive | inactive | Active |
| 100 µg/mL | > 1000 µg/mL | – | – | Cc1c(C)[n+]([O-])c2cc(C(=O)N[C@@H]3C(=O)N4[C@@H]3SC(C)(C)[C@@H]4C(=O)[O-])ccc2[n+]1[O-].[Na+] | inactive | inactive | – |
| 10 µg/mL | > 1000 µg/mL | – | – | CC1(C)S[C@@H]2[C@H](NC(=O)CCCc3c(-c4ccccc4)[n+]([O-])c4ccccc4[n+]3[O-])C(=O)N2[C@H]1C(=O)[O-].[Na+] | inactive | inactive | – |
| – | – | 100 µg/mL | 1000 µg/mL | Cc1c(C(=O)N[C@@H]2C(=O)N3[C@@H]2SC(C)(C)[C@@H]3C(=O)[O-])[n+]([O-])c2ccccc2[n+]1[O-].[Na+] | inactive | inactive | – |

Source: ChEMBL document CHEMBL3272199, “Beta-lactam antibiotics with N-oxide side chains. 1. Quinoxaline N-oxides” (1976)
